Reference: ChEMBL document CHEMBL1138972, “Discovery of potent CRTh2 (DP2) receptor antagonists” (Bioorg Med Chem Lett, 2006)
Calls of active or inactive are those of the source. The rule behind the calls is not given here.

Experiments:
physchem = conditions: buffer, pH 7.4
Description: Lipophilicity, LogD at pH 7.4

[1] = Intrinsic clearance in rat hepatocytes per 10^6 cells
[2] = molecular target: Voltage-gated inwardly rectifying potassium channel KCNH2 (Homo sapiens, UniProt Q12809); experiment: Binding affinity to hERG in HEK293 cells by radioligand binding assay; type: cell-based
Sequence of Voltage-gated inwardly rectifying potassium channel KCNH2 (Q12809 whole entry): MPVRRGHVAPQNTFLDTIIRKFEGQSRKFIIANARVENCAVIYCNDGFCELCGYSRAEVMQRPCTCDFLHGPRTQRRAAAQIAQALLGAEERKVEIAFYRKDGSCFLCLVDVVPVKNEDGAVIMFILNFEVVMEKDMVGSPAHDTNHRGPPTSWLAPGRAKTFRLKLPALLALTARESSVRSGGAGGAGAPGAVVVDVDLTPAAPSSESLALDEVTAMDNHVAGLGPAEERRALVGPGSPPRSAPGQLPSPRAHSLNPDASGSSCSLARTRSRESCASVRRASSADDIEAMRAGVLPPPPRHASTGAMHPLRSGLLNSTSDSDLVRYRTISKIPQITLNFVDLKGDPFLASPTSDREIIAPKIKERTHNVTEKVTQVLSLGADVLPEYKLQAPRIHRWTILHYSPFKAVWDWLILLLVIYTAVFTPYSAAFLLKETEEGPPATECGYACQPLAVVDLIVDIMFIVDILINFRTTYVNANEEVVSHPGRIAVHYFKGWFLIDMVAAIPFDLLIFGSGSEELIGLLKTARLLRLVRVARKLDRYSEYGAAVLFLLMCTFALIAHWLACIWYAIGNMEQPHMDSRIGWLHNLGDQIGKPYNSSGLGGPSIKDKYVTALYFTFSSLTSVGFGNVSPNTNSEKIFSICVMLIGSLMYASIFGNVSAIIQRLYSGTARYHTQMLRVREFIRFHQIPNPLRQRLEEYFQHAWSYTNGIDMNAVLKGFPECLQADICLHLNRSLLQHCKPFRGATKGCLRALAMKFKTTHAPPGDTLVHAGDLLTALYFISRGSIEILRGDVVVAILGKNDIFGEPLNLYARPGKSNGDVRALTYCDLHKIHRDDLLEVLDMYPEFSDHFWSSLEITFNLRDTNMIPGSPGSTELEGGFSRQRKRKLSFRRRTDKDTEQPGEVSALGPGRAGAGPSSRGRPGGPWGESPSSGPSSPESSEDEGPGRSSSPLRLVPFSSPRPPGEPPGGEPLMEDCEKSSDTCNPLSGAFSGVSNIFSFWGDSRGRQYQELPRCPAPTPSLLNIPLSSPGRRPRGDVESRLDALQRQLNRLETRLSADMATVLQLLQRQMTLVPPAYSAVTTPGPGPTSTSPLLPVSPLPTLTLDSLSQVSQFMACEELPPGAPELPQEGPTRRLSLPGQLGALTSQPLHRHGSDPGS

[3] = molecular target: T1, Prostaglandin D2 receptor 2 (Homo sapiens) (UniProt Q9Y5Y4); experiment: Agonist activity at CRTh2 receptor; type: functional
T1 sequence (whole entry): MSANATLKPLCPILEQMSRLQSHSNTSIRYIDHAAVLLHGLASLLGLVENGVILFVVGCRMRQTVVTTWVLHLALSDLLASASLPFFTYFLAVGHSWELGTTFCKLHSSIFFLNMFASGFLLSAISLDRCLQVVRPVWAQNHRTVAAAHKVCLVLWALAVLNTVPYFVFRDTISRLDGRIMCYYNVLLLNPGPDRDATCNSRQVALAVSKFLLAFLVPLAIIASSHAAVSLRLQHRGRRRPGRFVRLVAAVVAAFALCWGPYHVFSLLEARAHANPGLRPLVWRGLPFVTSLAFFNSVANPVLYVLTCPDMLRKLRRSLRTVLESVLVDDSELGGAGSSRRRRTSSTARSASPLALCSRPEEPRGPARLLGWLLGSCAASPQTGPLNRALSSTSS

Homo sapiens = organism: Homo sapiens; experiment: Protein binding in human plasma; conditions: read-out: PPB (converted)
[4] = molecular target: T2, Prostaglandin D2 receptor 2 (Homo sapiens, UniProt Q9Y5Y4); experiment: Displacement of [3H]PGD2 from human CRTh2 expressed in HEK293 cells; type: cell-based
T2 sequence (Q9Y5Y4 whole entry): T1 sequence (whole entry)

[5] = molecular target: T3, Prostaglandin D2 receptor (Homo sapiens) (UniProt Q13258); experiment: Binding affinity to DP1 receptor in HEK293 cells by radioligand binding assay; type: cell-based
T3 sequence (whole entry): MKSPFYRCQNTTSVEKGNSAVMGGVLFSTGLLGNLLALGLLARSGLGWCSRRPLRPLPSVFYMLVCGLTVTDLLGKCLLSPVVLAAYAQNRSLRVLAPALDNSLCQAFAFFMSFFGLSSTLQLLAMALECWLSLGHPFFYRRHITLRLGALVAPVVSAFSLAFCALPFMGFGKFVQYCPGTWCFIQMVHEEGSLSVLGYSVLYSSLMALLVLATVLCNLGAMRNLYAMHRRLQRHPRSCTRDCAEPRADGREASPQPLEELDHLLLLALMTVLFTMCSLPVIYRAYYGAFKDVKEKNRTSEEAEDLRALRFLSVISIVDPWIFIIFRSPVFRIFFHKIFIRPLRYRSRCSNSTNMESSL

[6] = molecular target: T1, Prostaglandin D2 receptor 2 (Homo sapiens); experiment: Activity at CRTh2 measured as calcium flux changes in HEK293 cells by FLIPR; type: functional, cell-based
[7] = (§1) Volume of distribution in rat; type: ADME, organism-based; conditions: in vivo, read-out: Vss
[8] = Clearance in rat; type: ADME, organism-based; conditions: in vivo
[9] = Protein binding in rat plasma; type: ADME, cell-free; conditions: read-out: PPB (converted)
[10] = molecular target: Prostaglandin G/H synthase 1 (Homo sapiens, UniProt P23219); experiment: Inhibition of COX1
Sequence of Prostaglandin G/H synthase 1 (P23219 whole entry): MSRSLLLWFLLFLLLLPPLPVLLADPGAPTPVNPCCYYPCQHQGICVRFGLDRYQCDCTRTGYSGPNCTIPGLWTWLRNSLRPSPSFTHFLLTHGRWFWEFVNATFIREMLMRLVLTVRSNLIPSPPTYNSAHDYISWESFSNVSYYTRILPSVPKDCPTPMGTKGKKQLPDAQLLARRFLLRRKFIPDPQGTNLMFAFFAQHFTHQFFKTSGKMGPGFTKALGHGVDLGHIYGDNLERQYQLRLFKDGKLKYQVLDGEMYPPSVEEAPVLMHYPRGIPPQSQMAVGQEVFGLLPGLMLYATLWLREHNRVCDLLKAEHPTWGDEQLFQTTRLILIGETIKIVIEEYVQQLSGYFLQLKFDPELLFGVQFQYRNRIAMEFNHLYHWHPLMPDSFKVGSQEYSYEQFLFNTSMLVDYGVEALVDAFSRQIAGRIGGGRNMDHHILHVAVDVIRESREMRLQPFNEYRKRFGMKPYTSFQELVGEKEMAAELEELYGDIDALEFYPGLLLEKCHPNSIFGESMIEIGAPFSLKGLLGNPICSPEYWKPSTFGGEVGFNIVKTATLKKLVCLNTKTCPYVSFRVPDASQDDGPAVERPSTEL

[11] = (§2) Half life in rat; type: ADME, organism-based; conditions: in vivo
[12] = Intrinsic clearance in human hepatocytes per 10^6 cells
[13] = Half life in dog; type: ADME, organism-based, Canis lupus familiaris; conditions: in vivo
[14] = Volume of distribution in dog; type: ADME, organism-based, Canis lupus familiaris; conditions: in vivo, read-out: Vss
Rattus norvegicus [15] = organism: Rattus norvegicus; experiment: as §1; type: ADME, organism-based; conditions: in vivo
[16] = molecular target: Aldo-keto reductase family 1 member B1 (Rattus norvegicus, UniProt P07943); experiment: Inhibition at rat aldose reductase
Cytochrome P450 2C9 = Cytochrome P450 2C9 (Homo sapiens, UniProt P11712); experiment: Inhibition at CYP2C9; type: ADME
Sequence of Cytochrome P450 2C9 (P11712 whole entry): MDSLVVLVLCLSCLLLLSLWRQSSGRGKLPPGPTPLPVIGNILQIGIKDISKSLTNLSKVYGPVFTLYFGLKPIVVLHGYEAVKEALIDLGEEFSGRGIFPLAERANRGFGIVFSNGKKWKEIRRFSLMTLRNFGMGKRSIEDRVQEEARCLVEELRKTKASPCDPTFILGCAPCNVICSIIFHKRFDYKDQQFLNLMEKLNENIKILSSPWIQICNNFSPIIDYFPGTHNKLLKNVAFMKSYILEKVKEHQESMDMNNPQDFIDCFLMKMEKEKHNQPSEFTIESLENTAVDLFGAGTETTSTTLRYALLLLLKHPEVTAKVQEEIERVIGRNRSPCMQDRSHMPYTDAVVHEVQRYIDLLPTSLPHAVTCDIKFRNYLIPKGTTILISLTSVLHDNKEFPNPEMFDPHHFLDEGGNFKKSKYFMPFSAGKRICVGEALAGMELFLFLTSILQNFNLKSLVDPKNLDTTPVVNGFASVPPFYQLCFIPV

[17] = Bioavailability in rat; type: ADME, organism-based; conditions: in vivo
Cytochrome P450 2C19 = Cytochrome P450 2C19 (Homo sapiens, UniProt P33261); experiment: Inhibition at recombinant human CYP2C19; type: ADME
Sequence of Cytochrome P450 2C19 (P33261 whole entry): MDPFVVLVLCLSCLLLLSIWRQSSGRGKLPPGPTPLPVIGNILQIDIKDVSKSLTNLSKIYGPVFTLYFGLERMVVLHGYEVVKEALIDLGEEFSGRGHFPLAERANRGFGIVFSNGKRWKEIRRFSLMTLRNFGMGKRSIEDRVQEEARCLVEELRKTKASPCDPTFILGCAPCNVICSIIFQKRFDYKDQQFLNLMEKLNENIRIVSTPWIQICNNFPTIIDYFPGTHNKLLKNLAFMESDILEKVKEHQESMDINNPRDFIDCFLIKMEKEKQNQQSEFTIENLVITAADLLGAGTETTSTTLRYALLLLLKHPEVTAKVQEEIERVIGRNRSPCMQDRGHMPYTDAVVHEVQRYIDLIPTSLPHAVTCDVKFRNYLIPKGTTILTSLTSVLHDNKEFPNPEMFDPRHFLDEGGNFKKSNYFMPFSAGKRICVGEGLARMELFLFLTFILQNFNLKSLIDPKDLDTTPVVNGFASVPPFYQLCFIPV

[18] = Clearance in dog; type: ADME, organism-based, Canis lupus familiaris; conditions: in vivo
[19] = Bioavailability in dog; type: ADME, organism-based, Canis lupus familiaris; conditions: in vivo
[20] = molecular target: T4, Prostaglandin G/H synthase 2 (Homo sapiens, UniProt P35354); experiment: Inhibition of COX2
T4 sequence (P35354 whole entry): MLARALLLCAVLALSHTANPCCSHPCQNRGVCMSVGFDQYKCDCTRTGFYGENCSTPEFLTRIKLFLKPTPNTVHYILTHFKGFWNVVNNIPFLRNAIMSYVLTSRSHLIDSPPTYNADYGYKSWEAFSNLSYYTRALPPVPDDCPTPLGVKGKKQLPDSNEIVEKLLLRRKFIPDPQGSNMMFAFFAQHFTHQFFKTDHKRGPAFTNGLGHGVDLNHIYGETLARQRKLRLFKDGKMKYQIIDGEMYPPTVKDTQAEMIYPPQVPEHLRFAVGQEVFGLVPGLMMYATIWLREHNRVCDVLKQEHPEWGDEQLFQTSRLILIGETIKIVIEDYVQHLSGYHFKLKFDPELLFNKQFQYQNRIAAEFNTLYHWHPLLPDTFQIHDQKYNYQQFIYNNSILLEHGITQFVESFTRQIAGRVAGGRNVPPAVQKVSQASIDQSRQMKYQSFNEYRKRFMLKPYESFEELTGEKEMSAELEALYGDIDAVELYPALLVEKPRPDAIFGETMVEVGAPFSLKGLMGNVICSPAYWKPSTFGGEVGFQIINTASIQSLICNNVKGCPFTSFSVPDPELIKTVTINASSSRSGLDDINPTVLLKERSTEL

[21] = molecular target: Sodium-dependent serotonin transporter (Rattus norvegicus, UniProt P31652); experiment: Inhibition at rat serotonin transporter
Sequence of Sodium-dependent serotonin transporter (P31652 whole entry): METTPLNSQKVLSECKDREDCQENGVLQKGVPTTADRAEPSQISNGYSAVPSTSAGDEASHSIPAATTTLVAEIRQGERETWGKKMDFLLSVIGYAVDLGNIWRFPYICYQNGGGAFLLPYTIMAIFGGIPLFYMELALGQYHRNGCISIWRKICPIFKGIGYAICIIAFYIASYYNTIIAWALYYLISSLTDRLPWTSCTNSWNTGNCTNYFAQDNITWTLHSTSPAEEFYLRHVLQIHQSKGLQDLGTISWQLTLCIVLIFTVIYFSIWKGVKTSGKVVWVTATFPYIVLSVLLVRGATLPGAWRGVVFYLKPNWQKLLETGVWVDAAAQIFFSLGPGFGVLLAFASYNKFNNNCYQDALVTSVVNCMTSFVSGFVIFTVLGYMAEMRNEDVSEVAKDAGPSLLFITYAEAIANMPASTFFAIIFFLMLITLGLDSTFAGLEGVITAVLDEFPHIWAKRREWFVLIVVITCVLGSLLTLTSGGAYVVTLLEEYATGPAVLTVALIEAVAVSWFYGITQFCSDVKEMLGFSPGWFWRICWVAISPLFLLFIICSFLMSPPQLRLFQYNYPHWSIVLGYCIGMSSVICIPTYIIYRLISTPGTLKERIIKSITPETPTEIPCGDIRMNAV

Rattus norvegicus [22] = organism: Rattus norvegicus; experiment: as §2; type: ADME, organism-based; conditions: in vivo

SMILES | logD (physchem) | hepatocyte CLint [1] | Activity [2] | Activity [3] | fraction unbound (Homo sapiens) | IC50 [4] | Activity [5] | hepatocyte CLint [12] | also measured
Cc1ccc2c(c1)c(-c1cc(C)nc3ccccc13)c(C)n2CC(=O)O | 2.9 | 5 µL/min/1e6 cells | > 6 µM | inactive | 0.004 | 18 nM | > 6 µM |  | 
Cc1ccc2c(-c3ccnc4cc(Cl)ccc34)c(C)n(CC(=O)O)c2c1 |  |  | > 6 µM | inactive |  | 125 nM | > 6 µM |  | 
Cc1ccc2c(c1)c(-c1ccnc3c(C#N)cccc13)c(C)n2CC(=O)O |  | < 3 µL/min/1e6 cells | > 6 µM | inactive |  | 18 nM | > 6 µM |  | 
Cc1c(CC(=O)O)c2ccccc2n1-c1ccncn1 |  |  | > 6 µM | inactive |  | 5200 nM | > 6 µM |  | Activity ([6]; filed as partial agonist): Partial agonist
Cc1ccc2c(c1)c(-c1ccnc3cc(Cl)ccc13)c(C)n2CC(=O)O | 1.6 | 6 µL/min/1e6 cells | > 6 µM | inactive | 0.002 | 8 nM | > 6 µM | 3.8 µL/min/1e6 cells | Vd [7]: 1.4 L/kg; clearance [8]: 6 mL/min/kg; fraction unbound [9]: 0.02; IC50 [10]: 400 nM; half-life [11]: 6.7 h
Cc1ccc2c(c1)c(-c1ccnc3c(Cl)cccc13)c(C)n2CC(=O)O | 1.3 | < 3 µL/min/1e6 cells | > 6 µM | inactive | 0.006 | 2.3 nM | > 6 µM | 2 µL/min/1e6 cells | half-life [13]: 2.4 h
Cc1ccc2c(c1)c(-c1ccnc3c(C)cccc13)c(C)n2CC(=O)O |  | 5.5 µL/min/1e6 cells | > 6 µM | inactive |  | 2.6 nM | > 6 µM | 1.9 µL/min/1e6 cells | Vd [14]: 0.2 L/kg; Vss (Rattus norvegicus [15]): 1.4 L/kg; IC50 [16]: 150 nM; IC50 (Cytochrome P450 2C9): 5000 nM; bioavailability [17]: 76%; IC50 (Cytochrome P450 2C19): 2500 nM; clearance [18]: 1 mL/min/kg; bioavailability [19]: 100%; IC50 [20]: 3000 nM; IC50 [21]: 2000 nM; fraction unbound [9]: 0.02; IC50 [10]: 3000 nM; T1/2 (Rattus norvegicus [22]): 1.7 h; half-life [13]: 5.3 h
Cc1ccc2c(c1)c(-c1ccnc3cc(C(F)(F)F)ccc13)c(C)n2CC(=O)O | 1.8 |  | > 6 µM | inactive | 0.004 | 5.4 nM | > 6 µM |  | 
Cc1ccc2c(c1)c(-c1ccnc3ccccc13)c(C)n2CC(=O)O |  | 10.7 µL/min/1e6 cells | > 6 µM | inactive |  | 21 nM | > 6 µM | 3 µL/min/1e6 cells | 
Cc1ccc2c(c1)c(-c1ccnc3ccc(C(F)(F)F)cc13)c(C)n2CC(=O)O | 1.8 | 16 µL/min/1e6 cells | > 6 µM | inactive |  | 68 nM | > 6 µM |  | 
Cc1ccc2c(c1)c(-c1ccnc3c(C(F)(F)F)cccc13)c(C)n2CC(=O)O | 1.3 |  | > 6 µM | inactive | 0.004 | 6 nM | > 6 µM |  | 
Cc1ccc2c(c1)c(-c1ccnc3c(F)cccc13)c(C)n2CC(=O)O | 0.5 | < 1 µL/min/1e6 cells | > 6 µM | inactive | 0.009 | 7.1 nM | > 6 µM | 1.6 µL/min/1e6 cells | 
Cc1ccc2c(c1)c(-c1ccnc3c(S(C)(=O)=O)cccc13)c(C)n2CC(=O)O | 0.3 |  | > 6 µM | inactive | 0.064 | 23 nM | > 6 µM |  | bioavailability [19]: 5%
COc1ccc2c(c1)c(-c1ccnc3cc(Cl)ccc13)c(C)n2CC(=O)O |  | 5 µL/min/1e6 cells | > 6 µM | inactive | 0.003 | 50 nM | > 6 µM |  | 
COc1ccc2c(c1)c(CC(=O)O)c(C)n2-c1ccnc2cc(Cl)ccc12 | 1.7 | 6.5 µL/min/1e6 cells | > 6 µM | inactive |  | 180 nM | > 6 µM | 1.4 µL/min/1e6 cells | Vd [7]: 2.3 L/kg; bioavailability [17]: 62%; IC50 (Cytochrome P450 2C19): 1600 nM; Activity ([6]; filed as antagonist): Antagonist; clearance [8]: 11 mL/min/kg; half-life [11]: 2.2 h
COc1cccc2c(-c3c(C)n(CC(=O)O)c4ccc(C)cc34)ccnc12 | 0.5 | 7 µL/min/1e6 cells | > 6 µM | inactive |  | 11 nM | > 6 µM |  | bioavailability [19]: 13%
